# From paper PMC7188713, “Phase 1 study of napabucasin, a cancer stemness inhibitor, in patients with advanced solid tumors” (Cancer Chemotherapy and Pharmacology, 2020)
# Where two headings read alike, the source gives them in different places. Marks after values point to notes of the source that are not given here.
# Tests used:
# CSCs = system: CSCs; design: method as in PMID 25605917; details: cited from earlier work
# [1] = system: NAD(P)H: quinone oxidoreductase-1; design: method as in PMID 31527169; details: results in redox cycling and ROS generation; cited from earlier work
# advanced solid tumors = experiment: Antitumor activity (RECIST 1.1 tumor response, PFS, OS, STAT3 SNP genotype); format: in vivo, Japanese patients
# Experimental: Assessments of antitumor activity were objective tumor response, median progression-free survival (PFS) and median overall survival (OS). Tumor response was evaluated according to RECIST 1.1 [21]. Median PFS was defined as the time from the day of the first dose of napabucasin to the date of progressive disease (PD), if neither was observed, the patient was to be censored at the last assessment of tumor response. Median OS was defined as the time from the first dose of napabucasin to the date of death from any cause. Patients who were still alive at the final observation were to be censored at the date they were last known to be alive. STAT3 single nucleotide polymorphism (SNP) genotyping was carried out using DNA extracted from whole blood samples to assess tumor response, median PFS, and median OS. Immunohistochemistry (IHC), mutation analysis (Oncomine Comprehensive Assay), and microsatellite instability analyses were performed in tumor tissue samples obtained from patients who provided additional consent to assess the relationship between specific biomarkers and the antitumor activity of napabucasin. IHC staining of phosphorylated STAT3 (pSTAT3) was carried out on archived tumor samples which were collected pre-treatment, and de novo lesions during and post-treatment were also collected, according to the protocol of a recent Phase 3 study. Positive pSTAT3 staining was defined as cancer cell nuclear staining ≥ 5% plus a stroma staining score of at least 2. The biomarker testing facility was responsible for IHC staining and storage of tumor samples. If consent to a genetic test was withdrawn, samples and associated analyses were discarded.
# (§1) The safety and antitumor activity (intention-to-treat [ITT]) analysis populations included all patients that received at least one dose of napabucasin. The DLT analysis population included all patients that received at least one dose of napabucasin with at least 80% compliance ([number of capsules actually ingested/number of capsules that should have been ingested per dose […]] × 100) during the DLT evaluation period, and those patients who experienced DLT during the evaluation period regardless of compliance. The PK population included all patients that received at least one dose of napabucasin and had plasma napabucasin concentration data for at least one-time point after the first dose of napabucasin.
# [2] = Plasma and urine pharmacokinetics of napabucasin in patients; format: in vivo, Japanese patients; details: for AUC(0-t) / AUC(0-inf) / Cmax / half-life / Tmax: human, oral; for AUC(0-t) / AUC(0-inf) / Cmax / half-life / Tmax / CL/F, range / CL/F, range (apparent total clearance at steady state): plasma; for AUC(0-inf): read-out: AUC0–∞, range; for Cmax: read-out: Cmax, range; for half-life: read-out: t1/2, range; for Tmax: read-out: tmax, range
# Experimental: Blood samples for PK were obtained on Days 1, 2, 8, and 15 of Cycle 1 and Days 29 and 30 of Cycle 2. On Day 1 of Cycle 1 and Day 29 of Cycle 2, blood samples were collected before the morning dose and at 2, 4, 6, 8, 10, 12, and 24 h after the morning dose of napabucasin; for samples collected 24 h following the morning dose of napabucasin on Day 1 and Day 29, collection occurred before the morning dose was administered on Day 2 and Day 30, respectively. On Days 8 and 15 of Cycle 1, blood samples were taken 168 and 336 h after the morning dose on Day 1. Urine samples were taken on Days 1 and 2 of Cycle 1 and Days 29 and 30 of Cycle 2. Samples were collected immediately after the morning dose on Days 1 and 29 through to immediately before the morning dose the next day. Plasma napabucasin concentration was measured by Frontage Laboratories and CMIC Pharma Science Co., Ltd and urine napabucasin concentration was measured by CMIC Pharma Science Co., Ltd.
# as §1
# [3] = design: method as in doi:10.1200/JCO.2018.36.15_suppl.4110, doi:10.1200/JCO.2017.35.4_suppl.593; details: napabucasin 240 mg BID in combination with standard treatment; cited from earlier work
# colorectal cancer = system: colorectal cancer; design: method as in PMID 29397354; details: cited from earlier work
# prostate cancer cell = system: prostate cancer cell; design: method as in PMID 26899963; details: in vitro; cited from earlier work
# [4] = 240 mg, Cycle 1 (Day 1), Cohort 1 (480 mg/day, 240 mg BID), n = 3
# [5] = 240 mg, Cycle 2 (Day 29), Cohort 1 (480 mg/day, 240 mg BID), n = 3
# [6] = 480 mg, Cycle 1 (Day 1), Cohort 2 (960 mg/day, 480 mg BID), n = 4
# [7] = 480 mg, Cycle 2 (Day 29), Cohort 2 (960 mg/day, 480 mg BID), n = 3
# [8] = 720 mg, Cycle 1 (Day 1), Cohort 3 (1440 mg/day, 720 mg BID), n = 7
# [9] = 720 mg, Cycle 2 (Day 29), Cohort 3 (1440 mg/day, 720 mg BID), n = 5
smiles,measurement,setting,value
CC(=O)c1cc2c(o1)C(=O)c1ccccc1C2=O [napabucasin],Selectivity for CSCs,CSCs,"selectively targets CSCs, leaving normal hematopoietic stem cells unaffected"
same,Bioactivation,[1],bioactivated by NAD(P)H: quinone oxidoreductase-1
same,Median OS,advanced solid tumors; Cohort 1 (480 mg/day),8.28 months
same,Median PFS,advanced solid tumors; Cohort 1 (480 mg/day),1.87 months
same,Median OS,advanced solid tumors; Cohort 2 (960 mg/day),5.03 months
same,Median PFS,advanced solid tumors; Cohort 2 (960 mg/day),1.76 months
same,Median OS,advanced solid tumors; Cohort 3 (1440 mg/day),5.68 months
same,Median PFS,advanced solid tumors; Cohort 3 (1440 mg/day),1.45 months
same,Antitumor activity by STAT3 SNP genotype,"advanced solid tumors; DNA from whole blood, G/G, C/C, C/G genotypes","no difference in antitumor activity between G/G, C/C, and C/G genotypes"
same,Median OS,advanced solid tumors; ITT population,5.83 months
same,Median PFS,advanced solid tumors; ITT population,1.71 months
same,Patients with progressive disease (PD),"advanced solid tumors; RECIST 1.1, 14 patients",12 patients
same,Patients with stable disease (SD) as best overall tumor response,"advanced solid tumors; RECIST 1.1, 14 patients, both colorectal cancer",two
same,Duration of SD,advanced solid tumors; one patient in Cohort 1 (480 mg/day),56 days
same,Duration of SD,advanced solid tumors; one patient in Cohort 3 (1440 mg/day),82 days
same,Proportion of patients who achieved SD,advanced solid tumors; this study,14%
same,AUC(0-t),"[2]; 240 mg, Cycle 1 (Day 1), Cohort 1 (480 mg/day, 240 mg BID), n = 3, read-out: AUC0–12, range",1370 to 2990 ng·h/mL
same,AUC(0-t),"[2]; 240 mg, Cycle 1 (Day 1), Cohort 1 (480 mg/day, 240 mg BID), n = 3, read-out: AUC0–24, range",2020 to 3800 ng·h/mL
same,AUC(0-inf),[2]; [4],3650 to 4060 ng·h/mL
same,Cmax,[2]; [4],194 to 468 ng/mL
same,half-life,[2]; [4],5 to 25 h
same,Tmax,[2]; [4],4 to 6 h
same,AUC(0-t),"[2]; 240 mg, Cycle 2 (Day 29), Cohort 1 (480 mg/day, 240 mg BID), n = 3, read-out: AUC0–12, range",2190 to 4940 ng·h/mL
same,AUC(0-t),"[2]; 240 mg, Cycle 2 (Day 29), Cohort 1 (480 mg/day, 240 mg BID), n = 3, read-out: AUC0–24, range",2510 to 6180 ng·h/mL
same,AUC(0-inf),[2]; [5],2570 to 6370 ng·h/mL
same,Cmax,[2]; [5],472 to 652 ng/mL
same,half-life,[2]; [5],4 to 5 h
same,Tmax,[2]; [5],4 to 10 h
same,AUC(0-t),"[2]; 480 mg, Cycle 1 (Day 1), Cohort 2 (960 mg/day, 480 mg BID), n = 4, read-out: AUC0–12, range",984 to 4780 ng·h/mL
same,AUC(0-t),"[2]; 480 mg, Cycle 1 (Day 1), Cohort 2 (960 mg/day, 480 mg BID), n = 4, read-out: AUC0–24, range",1200 to 6360 ng·h/mL
same,AUC(0-inf),[2]; [6],1410 to 7360 ng·h/mL
same,Cmax,[2]; [6],199 to 719 ng/mL
same,half-life,[2]; [6],7 to 8 h
same,Tmax,[2]; [6],2 to 6 h
same,AUC(0-t),"[2]; 480 mg, Cycle 2 (Day 29), Cohort 2 (960 mg/day, 480 mg BID), n = 3, read-out: AUC0–12, range",2560 to 2760 ng·h/mL
same,AUC(0-t),"[2]; 480 mg, Cycle 2 (Day 29), Cohort 2 (960 mg/day, 480 mg BID), n = 3, read-out: AUC0–24, range",2750 to 2880 ng·h/mL
same,AUC(0-inf),[2]; [7],2750 to 2880 ng·h/mL
same,Cmax,[2]; [7],391 to 477 ng/mL
same,half-life,[2]; [7],2 to 3 h
same,Tmax,[2]; [7],2 to 10 h
same,AUC(0-t),"[2]; 720 mg, Cycle 1 (Day 1), Cohort 3 (1440 mg/day, 720 mg BID), n = 7, read-out: AUC0–12, range",3440 to 11000 ng·h/mL
same,AUC(0-t),"[2]; 720 mg, Cycle 1 (Day 1), Cohort 3 (1440 mg/day, 720 mg BID), n = 7, read-out: AUC0–24, range",3920 to 14500 ng·h/mL
same,AUC(0-inf),[2]; [8],3870 to 14800 ng·h/mL
same,Cmax,[2]; [8],641 to 2070 ng/mL
same,half-life,[2]; [8],3 to 12 h
same,Tmax,[2]; [8],2 to 6 h
same,AUC(0-t),"[2]; 720 mg, Cycle 2 (Day 29), Cohort 3 (1440 mg/day, 720 mg BID), n = 5, read-out: AUC0–12, range",3650 to 15400 ng·h/mL
same,AUC(0-t),"[2]; 720 mg, Cycle 2 (Day 29), Cohort 3 (1440 mg/day, 720 mg BID), n = 5, read-out: AUC0–24, range",4480 to 20200 ng·h/mL
same,AUC(0-inf),[2]; [9],4740 to 123000 ng·h/mL
same,Cmax,[2]; [9],596 to 1930 ng/mL
same,half-life,[2]; [9],5 to 192 h
same,Tmax,[2]; [9],2 to 4 h
same,Difference in Cmax and AUC0–12 between doses,"[2]; plasma, 480, 960, 1440 mg/day",no clear difference between doses
same,"CL/F, range","[2]; Cycle 1 (Day 1), Cohort 1 (480 mg/day, 240 mg BID), n = 3",59 to 66 L/h
same,"CL/F, range","[2]; Cycle 1 (Day 1), Cohort 2 (960 mg/day, 480 mg BID), n = 4",65 to 341 L/h
same,"CL/F, range","[2]; Cycle 1 (Day 1), Cohort 3 (1440 mg/day, 720 mg BID), n = 7",49 to 186 L/h
same,"CL/F, range (apparent total clearance at steady state)","[2]; Cycle 2 (Day 29), Cohort 1 (480 mg/day, 240 mg BID), n = 3",49–109^a L/h
same,"CL/F, range (apparent total clearance at steady state)","[2]; Cycle 2 (Day 29), Cohort 2 (960 mg/day, 480 mg BID), n = 3",174–188^a L/h
same,"CL/F, range (apparent total clearance at steady state)","[2]; Cycle 2 (Day 29), Cohort 3 (1440 mg/day, 720 mg BID), n = 5",47–197^a L/h
same,Accumulation in plasma,"[2]; repeated BID dosing, Cycle 1 to Cycle 2",no abnormal accumulation was observed
same,Difference in urinary PK between cohorts,"[2]; urine, 480, 960, 1440 mg/day",no clear differences were observed between cohorts
same,DLTs,[3],no DLTs
same,Patients who achieved SD,colorectal cancer,12%
same,Effect on prostate cancer cells,prostate cancer cell,"inhibited prostate cancer cell survival, motility, and tumorigenesis in vitro"
